Reference: patent US20130123222A1, “Synergistic Anti-Cancer Activity of SR16388 with Anti-Mitotic Drugs” (SRI INTERNATIONAL, INC., priority 2011, published 2013)

Legend:
Type in all cases: cell-based
[1] = tested on: cancer cell lines; assay: Combination cell viability assay, general observations on ratios and confirmed synergy
Method: Cells were treated with compounds alone or in combination for three days and CellTiter-Glo® Luminescent Cell Viability Assay (Promega Corp.) was used as the endpoint to measure cell viability. […] Cells were harvested on Day-1 (FIG. 1A) and re-supspended to the corresponding seeding density and seeded with Wellmate (ThermoFisher) to 384 plates (BD or GBO). […] Master plates were made with Janus (PerkinElmer), then further diluted and added to the cell plates with Matrix Platemate (Thermo) on Day 0. CellTiter-Glo® Luminescent Cell Viability Assay (Promega Corp.) was used to measure ATP as an indicator of viable cells on Day 3 using Envision (PerkinElmer) and back up reader Analyst HT (MDS) and Gen5 (BioTek). Relative Luminescent Units (RLU) were plotted against corresponding drug concentrations and fitted with standard four parameter sigmoidal curve with custom coded R program or Calcusyn (Biosoft, Cambridge, UK).

[2] = tested on: various cancer cell lines; assay: 11×7 synergism hit rate over all cell lines (by algorism); settings: for % Hit rate: combination with SR16388, identified by algorism, all cell lines; for interaction with SR16388 in 11×7 experiments: in combination with SR16388
Source text: (§1) SR16388 was synthesized in house.
(§2) Within the same type of cancer cells, some cell lines have more synergistic hits than others. Melanoma and breast cancer cell lines had the highest hit rate.

[3] = tested on: OVCAR5; assay: 11×7 synergism hit rate; settings: Ovarian Cancer OVCAR5, combination with SR16388
Source text: as §1, §2

[4] = tested on: MOLT4; assay: 11×7 synergism hit rate; settings: Leukemia MOLT4, combination with SR16388
Source text: as §1, §2

[5] = tested on: SN12C; assay: 11×7 synergism hit rate; settings: Renal Cancer SN12C, combination with SR16388
Source text: as §1, §2

[6] = tested on: HOP92; assay: 11×7 synergism hit rate; settings: NSCLC HOP92, combination with SR16388
Source text: as §1, §2

[7] = tested on: HL60; assay: 11×7 synergism hit rate; settings: Leukemia HL60, combination with SR16388
Source text: as §1, §2

[8] = tested on: ADRRES; assay: 11×7 synergism hit rate; settings: Ovarian Cancer ADRRES, combination with SR16388
Source text: as §1, §2

[9] = tested on: KM12; assay: 11×7 synergism hit rate; settings: Colon Cancer KM12, combination with SR16388
Source text: as §1, §2

[10] = tested on: MDAMB231; assay: 11×7 synergism hit rate; settings: Breast Cancer MDAMB231, combination with SR16388
Source text: as §1, §2

[11] = tested on: NCIH322M; assay: 11×7 synergism hit rate; settings: NSCLC NCIH322M, combination with SR16388
Source text: as §1, §2

[12] = tested on: UACC257; assay: 11×7 synergism hit rate; settings: Melanoma UACC257, combination with SR16388
Source text: as §1, §2

[13] = tested on: A498; assay: 11×7 synergism hit rate; settings: Renal Cancer A498, combination with SR16388
Source text: as §1, §2

[14] = tested on: PCS; assay: 11×7 synergism hit rate; settings: Prostate Cancer PCS, combination with SR16388
Source text: as §1, §2

[15] = tested on: MCF7; assay: 11×7 synergism hit rate; settings: Breast Cancer MCF7, combination with SR16388
Source text: as §1, §2

[16] = tested on: RPMI8226; assay: 11×7 synergism hit rate; settings: Leukemia RPMI8226, combination with SR16388
Source text: as §1, §2

[17] = tested on: NCIH226; assay: 11×7 synergism hit rate; settings: NSCLC NCIH226, combination with SR16388
Source text: as §1, §2

[18] = tested on: ACHN; assay: 11×7 synergism hit rate; settings: Renal Cancer ACHN, combination with SR16388
Source text: as §1, §2

[19] = tested on: SF539; assay: 11×7 synergism hit rate; settings: CNS Cancer SF539, combination with SR16388
Source text: as §1, §2

[20] = tested on: CCRFCEM; assay: 11×7 synergism hit rate; settings: Leukemia CCRFCEM, combination with SR16388
Source text: as §1, §2

[21] = tested on: SNB75; assay: 11×7 synergism hit rate; settings: CNS Cancer SNB75, combination with SR16388
Source text: as §1, §2

[22] = tested on: TK10; assay: 11×7 synergism hit rate; settings: Renal Cancer TK10, combination with SR16388
Source text: as §1, §2

[23] = tested on: MDAMB435; assay: 11×7 synergism hit rate; settings: Melanoma MDAMB435, combination with SR16388
Source text: as §1, §2

[24] = tested on: 7860; assay: 11×7 synergism hit rate; settings: Renal Cancer 7860, combination with SR16388
Source text: as §1, §2

[25] = tested on: NCIH460; assay: 11×7 synergism hit rate; settings: NSCLC NCIH460, combination with SR16388
Source text: as §1, §2

[26] = tested on: BT549; assay: 11×7 synergism hit rate; settings: Breast Cancer BT549, combination with SR16388
Source text: as §1, §2

[27] = tested on: U251; assay: 11×7 synergism hit rate; settings: CNS Cancer U251, combination with SR16388
Source text: as §1, §2

[28] = tested on: OVCAR3; assay: 11×7 synergism hit rate; settings: Ovarian Cancer OVCAR3, combination with SR16388
Source text: as §1, §2

[29] = tested on: HOP62; assay: 11×7 synergism hit rate; settings: NSCLC HOP62, combination with SR16388
Source text: as §1, §2

[30] = tested on: SF295; assay: 11×7 synergism hit rate; settings: CNS Cancer SF295, combination with SR16388
Source text: as §1, §2

[31] = tested on: SF268; assay: 11×7 synergism hit rate; settings: CNS Cancer SF268, combination with SR16388
Source text: as §1, §2

[32] = tested on: HCT15; assay: 11×7 synergism hit rate; settings: Colon Cancer HCT15, combination with SR16388
Source text: as §1, §2

[33] = tested on: DU145; assay: 11×7 synergism hit rate; settings: Prostate Cancer DU145, combination with SR16388
Source text: as §1, §2

[34] = tested on: SR; assay: 11×7 synergism hit rate; settings: Leukemia SR, combination with SR16388
Source text: as §1, §2

[35] = tested on: U031; assay: 11×7 synergism hit rate; settings: Renal Cancer U031, combination with SR16388
Source text: as §1, §2

[36] = tested on: MALME; assay: 11×7 synergism hit rate; settings: Melanoma MALME, combination with SR16388
Source text: as §1, §2

[37] = tested on: HS578T; assay: 11×7 synergism hit rate; settings: Breast Cancer HS578T, combination with SR16388
Source text: as §1, §2

[38] = tested on: SKMEL28; assay: 11×7 synergism hit rate; settings: Melanoma SKMEL28, combination with SR16388
Source text: as §1, §2

[39] = tested on: HCT116; assay: 11×7 synergism hit rate; settings: Colon Cancer HCT116, combination with SR16388
Source text: as §1, §2

SMILES	% Hit rate [2]	interaction with SR16388 in 11×7 experiments [2]	% Hit rate [3]	% Hit rate [4]	% Hit rate [5]	% Hit rate [6]	% Hit rate [7]	% Hit rate [8]	% Hit rate [9]	% Hit rate [10]	% Hit rate [11]	% Hit rate [12]	% Hit rate [13]	% Hit rate [14]	% Hit rate [15]	% Hit rate [16]	% Hit rate [17]	% Hit rate [18]	% Hit rate [19]	% Hit rate [20]	also measured
CC(=O)O[C@H]1C(=O)[C@@]2(C)[C@H]([C@H](OC(=O)c3ccccc3)[C@]3(O)C[C@H](OC(=O)[C@H](O)[C@@H](NC(=O)c4ccccc4)c4ccccc4)C(C)=C1C3(C)C)[C@]1(OC(C)=O)CO[C@@H]1C[C@@H]2O [Paclitaxel]	14.88%	synergistic effect	6%	21%	13%	10%	25%	1%	10%	21%	17%	35%	10%	0%	31%	5%	27%	14%	19%	14%	interaction with SR16388 (confirmed) ([1]; in combination with SR16388): synergistic anti-proliferation effect; interaction with more paclitaxel in the mixture ([1]; more paclitaxel than SR16388:Paclitaxel 67:33): antagonist interactions; % Hit rate [21]: 13%; % Hit rate [22]: 13%; % Hit rate [23]: 12%; % Hit rate [24]: 22%; % Hit rate [25]: 35%; % Hit rate [26]: 3%; % Hit rate [27]: 12%; % Hit rate [28]: 8%; % Hit rate [29]: 1%; % Hit rate [30]: 8%; % Hit rate [31]: 22%; % Hit rate [32]: 14%; % Hit rate [33]: 3%; % Hit rate [34]: 1%; % Hit rate [35]: 9%; % Hit rate [36]: 14%; % Hit rate [37]: 23%; % Hit rate [38]: 35%
CC[C@]1(O)C[C@@H]2CN(CCc3c([nH]c4ccccc34)[C@@](C(=O)OC)(c3cc4c(cc3OC)N(C)[C@H]3[C@@](O)(C(=O)OC)[C@H](OC(C)=O)[C@]5(CC)C=CCN6CC[C@]43[C@@H]65)C2)C1 [Vinblastine]	4.94%	synergistic effect	0%	8%	1%	6%	16%	0%	1%	1%	3%	6%	4%	1%	17%	0%	8%	3%	8%	3%	% Hit rate [21]: 3%; % Hit rate [22]: 4%; % Hit rate [23]: 4%; % Hit rate [24]: 10%; % Hit rate [25]: 16%; % Hit rate [26]: 1%; % Hit rate [27]: 0%; % Hit rate [28]: 4%; % Hit rate [29]: 0%; % Hit rate [30]: 0%; % Hit rate [31]: 6%; % Hit rate [39]: 6%; % Hit rate [32]: 10%; % Hit rate [33]: 0%; % Hit rate [34]: 0%; % Hit rate [35]: 3%; % Hit rate [36]: 0%; % Hit rate [37]: 8%; % Hit rate [38]: 8%
